For assay [1], the target named is Nicotinic acetylcholine receptor alpha9/alpha10 (Rattus norvegicus, UniProt P43144+Q9JLB5). The assay can be described thus: Antagonist activity at rat alpha9alpha10 nACh receptor expressed in Xenopus oocyte assessed as inhibition of acetylcholine-induced response at -70 mV holding potential by voltage-clamp based electrophysiological assay. The format is cell-based.

Assay [2] has as its target Neuronal acetylcholine receptor subunit alpha-7 (Rattus norvegicus, UniProt Q05941). The experiment in a line: Antagonist activity at rat alpha7 nACh receptor expressed in Xenopus oocyte assessed as inhibition of acetylcholine-induced response at -70 mV holding potential by voltage-clamp based electrophysiological assay. The assay is classed as cell-based.

SMILES strings stand for the structures. pIC50: −log10 of the molar value. Where a SMILES comes first, the peptide text is derived from it.

Neuronal acetylcholine receptor subunit alpha-7, sequence (Q05941 whole entry): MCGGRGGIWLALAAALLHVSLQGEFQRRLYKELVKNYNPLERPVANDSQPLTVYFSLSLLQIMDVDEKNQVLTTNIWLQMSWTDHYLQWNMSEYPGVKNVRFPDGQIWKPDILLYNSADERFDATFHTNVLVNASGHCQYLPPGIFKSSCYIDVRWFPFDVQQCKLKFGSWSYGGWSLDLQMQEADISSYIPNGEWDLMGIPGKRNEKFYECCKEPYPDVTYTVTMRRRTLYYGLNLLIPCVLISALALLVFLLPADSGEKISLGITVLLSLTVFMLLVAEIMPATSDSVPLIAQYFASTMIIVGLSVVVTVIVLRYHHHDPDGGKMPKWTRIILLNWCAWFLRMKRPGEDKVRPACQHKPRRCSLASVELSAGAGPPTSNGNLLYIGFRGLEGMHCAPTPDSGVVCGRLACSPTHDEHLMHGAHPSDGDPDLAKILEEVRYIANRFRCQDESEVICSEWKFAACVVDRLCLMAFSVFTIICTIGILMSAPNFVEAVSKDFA
Nicotinic acetylcholine receptor alpha9/alpha10, sequence (P43144 whole entry): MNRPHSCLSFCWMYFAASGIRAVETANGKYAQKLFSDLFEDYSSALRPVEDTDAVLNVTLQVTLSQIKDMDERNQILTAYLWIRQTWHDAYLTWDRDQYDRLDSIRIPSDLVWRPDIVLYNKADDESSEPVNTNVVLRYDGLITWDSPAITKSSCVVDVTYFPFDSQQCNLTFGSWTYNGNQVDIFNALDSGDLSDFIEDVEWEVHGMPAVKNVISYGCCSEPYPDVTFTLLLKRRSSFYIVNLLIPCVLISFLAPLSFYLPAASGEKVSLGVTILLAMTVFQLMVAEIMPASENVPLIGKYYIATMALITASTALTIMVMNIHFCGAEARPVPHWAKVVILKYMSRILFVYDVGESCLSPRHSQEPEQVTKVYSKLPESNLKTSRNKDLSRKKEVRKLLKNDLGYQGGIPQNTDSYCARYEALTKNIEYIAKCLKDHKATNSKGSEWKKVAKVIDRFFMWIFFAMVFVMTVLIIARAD
Nicotinic acetylcholine receptor alpha9/alpha10, sequence (Q9JLB5 whole entry): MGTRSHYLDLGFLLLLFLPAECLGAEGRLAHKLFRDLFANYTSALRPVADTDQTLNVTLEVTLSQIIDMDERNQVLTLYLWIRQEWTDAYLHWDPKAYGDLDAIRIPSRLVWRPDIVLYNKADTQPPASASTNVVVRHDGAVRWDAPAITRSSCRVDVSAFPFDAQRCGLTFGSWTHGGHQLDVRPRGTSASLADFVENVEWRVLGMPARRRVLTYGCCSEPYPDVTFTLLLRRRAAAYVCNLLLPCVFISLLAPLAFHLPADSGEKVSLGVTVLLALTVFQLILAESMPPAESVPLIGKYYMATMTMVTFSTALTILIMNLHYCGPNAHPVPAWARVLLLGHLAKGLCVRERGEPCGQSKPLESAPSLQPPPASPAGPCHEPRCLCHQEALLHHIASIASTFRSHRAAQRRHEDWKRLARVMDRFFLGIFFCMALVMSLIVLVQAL

The term pIC50 denotes −log10 of the IC50, conventionally taken in molar units. As to `CC[C@H](C)[C@@H]1NC(=O)[C@H](CCCNC(=N)N)NC(=O)[C@H](CCCNC(=N)N)NC(=O)[C@@H](NC(=O)[C@H](Cc2ccc(O)cc2)NC(=O)[C@H](CCCNC(=N)N)NC(=O)[C@H](CCCNC(=N)N)NC(=O)[C@H](CCCNC(=N)N)NC(=O)[C@H](CCCNC(=N)N)NC(=O)[C@H](CC(=O)O)NC(=O)[C@H](Cc2ccc(O)cc2)NC(=O)[C@@H]2CCCN2C(=O)[C@H](CO)NC(=O)[C@H](CCCNC(=N)N)NC(=O)[C@@H]2CSSC[C@H](NC(=O)[C@H](C)N)C(=O)N[C@@H](CCCNC(=N)N)C(=O)N[C@@H](CO)C(=O)N[C@@H](CO)C(=O)NCC(=O)N[C@@H](CCCNC(=N)N)C(=O)N[C@@H](Cc3ccc(O)cc3)C(=O)N2)CSSC[C@@H](C(=O)N[C@H](C(=O)O)C(C)C)NC(=O)[C@H](C)NC(=O)[C@H](CC(=O)O)NC(=O)[C@H]([C@@H](C)O)NC1=O`, the pIC50 in assay [1] is 8.09; in assay [2], 5.97.
On the same counts, the results for `CC[C@H](C)[C@@H]1NC(=O)[C@H](CCCNC(=N)N)NC(=O)[C@H](CCCNC(=N)N)NC(=O)[C@@H](NC(=O)[C@H](Cc2ccc(O)cc2)NC(=O)[C@H](CCCNC(=N)N)NC(=O)[C@H](CCCNC(=N)N)NC(=O)[C@H](CCCNC(=N)N)NC(=O)[C@H](CCCNC(=N)N)NC(=O)[C@H](CC(=O)O)NC(=O)[C@H](C)NC(=O)[C@@H]2CCCN2C(=O)[C@H](CO)NC(=O)[C@H](CCCNC(=N)N)NC(=O)[C@@H]2CSSC[C@H](NC(=O)[C@@H](N)[C@@H](C)O)C(=O)N[C@@H](CCCNC(=N)N)C(=O)N[C@@H](CO)C(=O)N[C@@H](CO)C(=O)NCC(=O)N[C@@H](CCCNC(=N)N)C(=O)N[C@@H](Cc3ccc(O)cc3)C(=O)N2)CSSC[C@@H](C(=O)N[C@H](C(=O)O)C(C)C)NC(=O)[C@H](C)NC(=O)[C@H](CC(=O)O)NC(=O)[C@H]([C@@H](C)O)NC1=O` (HELM PEPTIDE1{T.C.R.S.S.G.R.Y.C.R.S.P.A.D.R.R.R.R.Y.C.R.R.I.T.D.A.C.V}$PEPTIDE1,PEPTIDE1,2:R3-9:R3|PEPTIDE1,PEPTIDE1,20:R3-27:R3$$$V2.0) are 7.96 and 5.52.
For the compound `CC[C@H](C)[C@@H]1NC(=O)[C@H](CCCNC(=N)N)NC(=O)[C@H](CCCNC(=N)N)NC(=O)[C@@H]2CSSC[C@H](NC(=O)[C@H](Cc3ccc(O)cc3)NC(=O)[C@H](CCCNC(=N)N)NC(=O)CNC(=O)[C@H](CO)NC(=O)[C@H](CO)NC(=O)[C@H](CCCNC(=N)N)NC(=O)[C@@H](NC(=O)[C@@H](N)[C@@H](C)O)CSSC[C@@H](C(=O)N[C@H](C(=O)O)C(C)C)NC(=O)[C@H](C)NC(=O)[C@H](CC(=O)O)NC(=O)[C@H]([C@@H](C)O)NC1=O)C(=O)N[C@@H](CCCNC(=N)N)C(=O)N[C@@H](CO)C(=O)N1CCC[C@H]1C(=O)N[C@@H](Cc1ccc(O)cc1)C(=O)N[C@@H](CC(=O)O)C(=O)N[C@@H](CCCNC(=N)N)C(=O)N[C@@H](CCCNC(=N)N)C(=O)N[C@@H](C)C(=O)N[C@@H](CCCNC(=N)N)C(=O)N[C@@H](Cc1ccc(O)cc1)C(=O)N2`, the pIC50 in assay [1] was 7.24; in assay [2], below 5.00.
For `CC[C@H](C)[C@@H]1NC(=O)[C@H](CCCNC(=N)N)NC(=O)[C@H](CCCNC(=N)N)NC(=O)[C@@H]2CSSC[C@H](NC(=O)[C@H](Cc3ccc(O)cc3)NC(=O)[C@H](CCCNC(=N)N)NC(=O)CNC(=O)[C@H](CO)NC(=O)[C@H](CO)NC(=O)[C@H](CCCNC(=N)N)NC(=O)[C@@H](NC(=O)[C@H](C)N)CSSC[C@@H](C(=O)N[C@H](C(=O)O)C(C)C)NC(=O)[C@H](C)NC(=O)[C@H](CC(=O)O)NC(=O)[C@H]([C@@H](C)O)NC1=O)C(=O)N[C@@H](CCCNC(=N)N)C(=O)N[C@@H](CO)C(=O)N1CCC[C@H]1C(=O)N[C@@H](Cc1ccc(O)cc1)C(=O)N[C@@H](CC(=O)O)C(=O)N[C@@H](CCCNC(=N)N)C(=O)N[C@@H](CCCNC(=N)N)C(=O)N[C@@H](CCCNC(=N)N)C(=O)N[C@@H](CCCNC(=N)N)C(=O)N[C@@H](Cc1ccc(O)cc1)C(=O)N2`, in that order: 7.85 and 5.61.
As for `CC[C@H](C)[C@@H]1NC(=O)[C@H](CCCNC(=N)N)NC(=O)[C@H](CCCNC(=N)N)NC(=O)[C@@H]2CSSC[C@H](NC(=O)[C@H](Cc3ccc(O)cc3)NC(=O)[C@H](CCCNC(=N)N)NC(=O)CNC(=O)[C@H](CO)NC(=O)[C@H](CO)NC(=O)[C@H](CCCNC(=N)N)NC(=O)[C@@H](NC(=O)[C@@H](N)[C@@H](C)O)CSSC[C@@H](C(=O)N[C@H](C(=O)O)C(C)C)NC(=O)[C@H](C)NC(=O)[C@H](CC(=O)O)NC(=O)[C@H](C)NC1=O)C(=O)N[C@@H](CCCNC(=N)N)C(=O)N[C@@H](CO)C(=O)N1CCC[C@H]1C(=O)N[C@@H](Cc1ccc(O)cc1)C(=O)N[C@@H](CC(=O)O)C(=O)N[C@@H](CCCNC(=N)N)C(=O)N[C@@H](CCCNC(=N)N)C(=O)N[C@@H](CCCNC(=N)N)C(=O)N[C@@H](CCCNC(=N)N)C(=O)N[C@@H](Cc1ccc(O)cc1)C(=O)N2`, the pIC50 in assay [1] is 7.44; in assay [2] it was 5.15.
On the same counts, the results for `CC[C@H](C)[C@@H]1NC(=O)[C@H](CCCNC(=N)N)NC(=O)[C@H](CCCNC(=N)N)NC(=O)[C@@H]2CSSC[C@H](NC(=O)[C@H](Cc3ccc(O)cc3)NC(=O)[C@H](CCCNC(=N)N)NC(=O)CNC(=O)[C@H](CO)NC(=O)[C@H](CO)NC(=O)[C@H](CCCNC(=N)N)NC(=O)[C@@H](NC(=O)[C@@H](N)[C@@H](C)O)CSSC[C@@H](C(=O)N[C@H](C(=O)O)C(C)C)NC(=O)[C@H](C)NC(=O)[C@H](CC(=O)O)NC(=O)[C@H]([C@@H](C)O)NC1=O)C(=O)N[C@@H](CCCNC(=N)N)C(=O)N[C@@H](CO)C(=O)N1CCC[C@H]1C(=O)N[C@@H](Cc1ccc(O)cc1)C(=O)N[C@@H](CC(=O)O)C(=O)N[C@@H](C)C(=O)N[C@@H](CCCNC(=N)N)C(=O)N[C@@H](CCCNC(=N)N)C(=O)N[C@@H](CCCNC(=N)N)C(=O)N[C@@H](Cc1ccc(O)cc1)C(=O)N2` are 7.47 and 5.19.
As for `CC[C@H](C)[C@@H]1NC(=O)[C@H](CCCNC(=N)N)NC(=O)[C@H](CCCNC(=N)N)NC(=O)[C@@H](NC(=O)[C@H](Cc2ccc(O)cc2)NC(=O)[C@H](CCCNC(=N)N)NC(=O)[C@H](CCCNC(=N)N)NC(=O)[C@H](CCCNC(=N)N)NC(=O)[C@H](CCCNC(=N)N)NC(=O)[C@H](CC(=O)O)NC(=O)[C@H](Cc2ccc(O)cc2)NC(=O)[C@@H]2CCCN2C(=O)[C@@H](CO)NC(=O)[C@H](C)NC(=O)[C@@H]2CSSC[C@H](NC(=O)[C@@H](N)[C@@H](C)O)C(=O)N[C@@H](CCCNC(=N)N)C(=O)N[C@@H](CO)C(=O)N[C@@H](CO)C(=O)NCC(=O)N[C@@H](CCCNC(=N)N)C(=O)N[C@@H](Cc3ccc(O)cc3)C(=O)N2)CSSC[C@@H](C(=O)N[C@H](C(=O)O)C(C)C)NC(=O)[C@H](C)NC(=O)[C@H](CC(=O)O)NC(=O)[C@H]([C@@H](C)O)NC1=O`, the pIC50 is 7.15 in assay [1] and 5.72 in assay [2].
For `CC[C@H](C)[C@@H]1NC(=O)[C@H](CCCNC(=N)N)NC(=O)[C@H](CCCNC(=N)N)NC(=O)[C@@H]2CSSC[C@H](NC(=O)[C@H](C)NC(=O)[C@H](CCCNC(=N)N)NC(=O)CNC(=O)[C@H](CO)NC(=O)[C@H](CO)NC(=O)[C@H](CCCNC(=N)N)NC(=O)[C@@H](NC(=O)[C@@H](N)[C@@H](C)O)CSSC[C@@H](C(=O)N[C@H](C(=O)O)C(C)C)NC(=O)[C@H](C)NC(=O)[C@H](CC(=O)O)NC(=O)[C@H]([C@@H](C)O)NC1=O)C(=O)N[C@@H](CCCNC(=N)N)C(=O)N[C@@H](CO)C(=O)N1CCC[C@H]1C(=O)N[C@@H](Cc1ccc(O)cc1)C(=O)N[C@@H](CC(=O)O)C(=O)N[C@@H](CCCNC(=N)N)C(=O)N[C@@H](CCCNC(=N)N)C(=O)N[C@@H](CCCNC(=N)N)C(=O)N[C@@H](CCCNC(=N)N)C(=O)N[C@@H](Cc1ccc(O)cc1)C(=O)N2` (HELM PEPTIDE1{T.C.R.S.S.G.R.A.C.R.S.P.Y.D.R.R.R.R.Y.C.R.R.I.T.D.A.C.V}$PEPTIDE1,PEPTIDE1,2:R3-27:R3|PEPTIDE1,PEPTIDE1,9:R3-20:R3$$$V2.0), in that order: 6.92 and 5.13.
On the same counts, the results for `CC[C@H](C)[C@@H]1NC(=O)[C@H](CCCNC(=N)N)NC(=O)[C@H](CCCNC(=N)N)NC(=O)[C@@H]2CSSC[C@H](NC(=O)[C@H](Cc3ccc(O)cc3)NC(=O)[C@H](CCCNC(=N)N)NC(=O)CNC(=O)[C@H](C)NC(=O)[C@H](CO)NC(=O)[C@H](CCCNC(=N)N)NC(=O)[C@@H](NC(=O)[C@@H](N)[C@@H](C)O)CSSC[C@@H](C(=O)N[C@H](C(=O)O)C(C)C)NC(=O)[C@H](C)NC(=O)[C@H](CC(=O)O)NC(=O)[C@H]([C@@H](C)O)NC1=O)C(=O)N[C@@H](CCCNC(=N)N)C(=O)N[C@@H](CO)C(=O)N1CCC[C@H]1C(=O)N[C@@H](Cc1ccc(O)cc1)C(=O)N[C@@H](CC(=O)O)C(=O)N[C@@H](CCCNC(=N)N)C(=O)N[C@@H](CCCNC(=N)N)C(=O)N[C@@H](CCCNC(=N)N)C(=O)N[C@@H](CCCNC(=N)N)C(=O)N[C@@H](Cc1ccc(O)cc1)C(=O)N2` (HELM PEPTIDE1{T.C.R.S.A.G.R.Y.C.R.S.P.Y.D.R.R.R.R.Y.C.R.R.I.T.D.A.C.V}$PEPTIDE1,PEPTIDE1,2:R3-27:R3|PEPTIDE1,PEPTIDE1,9:R3-20:R3$$$V2.0) are 7.22 and 5.20.
For `CC[C@H](C)[C@@H]1NC(=O)[C@H](CCCNC(=N)N)NC(=O)[C@H](CCCNC(=N)N)NC(=O)[C@@H]2CSSC[C@H](NC(=O)[C@H](Cc3ccc(O)cc3)NC(=O)[C@H](CCCNC(=N)N)NC(=O)CNC(=O)[C@H](CO)NC(=O)[C@H](CO)NC(=O)[C@H](CCCNC(=N)N)NC(=O)[C@@H](NC(=O)[C@@H](N)[C@@H](C)O)CSSC[C@@H](C(=O)N[C@H](C(=O)O)C(C)C)NC(=O)[C@H](C)NC(=O)[C@H](CC(=O)O)NC(=O)[C@H]([C@@H](C)O)NC1=O)C(=O)N[C@@H](CCCNC(=N)N)C(=O)N[C@@H](CO)C(=O)N1CCC[C@H]1C(=O)N[C@@H](Cc1ccc(O)cc1)C(=O)N[C@@H](CC(=O)O)C(=O)N[C@@H](CCCNC(=N)N)C(=O)N[C@@H](CCCNC(=N)N)C(=O)N[C@@H](CCCNC(=N)N)C(=O)N[C@@H](C)C(=O)N[C@@H](Cc1ccc(O)cc1)C(=O)N2`, in that order: 7.57 and below 5.00.

Source of the values: ChEMBL document CHEMBL5346973 (J Med Chem, 2023).
